# Assay results taken from ChEMBL document CHEMBL1136900, “Discovery of aminoheterocycles as a novel beta-secretase inhibitor class: pH dependence on binding activity part 1” (Bioorg Med Chem Lett, 2009).
# Assays:
# [1] = Dissociation constant, pKa of the compound; assay type: physicochemical
# [2] = Ratio of drug level in brain to plasma in mouse at 20 mg/kg, iv after 30 mins; assay type: ADME, organism-based; set-up: dose 20 mg/kg, route intravenous; conditions: brain and plasma, read-out: BPR
# [3] = Drug level in mouse brain at 20 mg/kg, iv after 30 mins; assay type: ADME, organism-based; set-up: dose 20 mg/kg, route intravenous; conditions: read-out: Drug uptake
Compound,pKa [1],Kp at 0.5 h [2],concentration at 0.5 h [3]
COc1ccc(C(Cc2cc([N+](=O)[O-])ccc2OC)c2c[nH]c(N)n2)cc1 (stereo not given),8.1,–,–
COc1ccc(C(Cc2cc([N+](=O)[O-])ccc2OC)c2csc(N)n2)cc1 (stereo not given),5.5,–,–
Nc1nc(C2(c3ccc(Cl)cc3)CCCC2)cs1,–,3.9,15 µM
COc1ccc(C(Cc2cc([N+](=O)[O-])ccc2OC)c2cn(C)c(N)n2)cc1 (stereo not given),8.3,–,–
